Data: article PMC9405596, “Evaluation of the Anti-Leishmania mexicana and -Trypanosoma brucei Activity and Mode of Action of 4,4′-(Arylmethylene)bis(3-methyl-1-phenyl-1H-pyrazol-5-ol)” (Biomedicines, 2022)
Where two headings read alike, the source gives them in different places.

Assays:
[1] = tested on: L. mexicana promastigotes; assay: MTT viability assay against L. mexicana promastigotes; type: cell-based, Leishmania mexicana; details: for L. mexicana Promastigote SI vs. Hepatocytes: CC50 HepG2 hepatocytes/IC50 L. mexicana; for L. mexicana Promastigote SI vs. Macrophage: CC50 RAW macrophages/IC50 L. mexicana; for IC50: 48 h
Description: The leishmanicidal activity against promastigotes from L. mexicana was evaluated by measuring parasites’ mitochondrial activity using the MTT (Thiazolyl Blue Tetrazolium Bromide) colorimetric assay as described previously. […] The medium was renewed every third day and subcultures were prepared when parasite density reached 1 × 10^7 parasites/mL. A Neubauer chamber was used to determine parasite density.

[2] = tested on: recombinant roGFP2 biosensor; assay: In vitro fluorescence assay with recombinant roGFP2 biosensor; type: biochemical; details: 50 µM compound, 5 µM biosensor, 1 h
Description: The His-tagged recombinant form of a roGFP2 biosensor was expressed and purified from Escherichia coli (strain C41). An overnight pre-culture (LB medium + 50 µg/mL kanamycin, 220 rpm at 37 °C) of transformed cells was diluted 1:100 in fresh 2YT medium with 50 µg/mL kanamycin, and grown at 220 rpm and 37 °C until reaching an OD600 of ~0.8. At this time point, the culture was supplemented with IPTG (end concentration 1 mM) and the incubation was extended overnight at 100 rpm, 20 °C. Cells were harvested by centrifugation at 5000× g for 10 min at 4 °C and the cell pellet was resuspended in Buffer A (50 mM sodium phosphate, pH 8.0, 300 mM NaCl) at a ratio of 5 mL buffer per gram of pellet. Lysozyme (50 mg/mL) and DNAse (15 U/mL; Roche) were added to the cell homogenate and the suspension was incubated for 1 h on ice. Next, cells were sonicated for 2 min (30 s on/off pulses at an amplitude of 40%) and the lysate was centrifuged twice at 23,000× g, 4 °C, for 1 h. The clarified supernatant was filtered (0.4 µm filter) and applied to a 5 mL HisTrap column (GE Healthcare, Chicago, IL, USA) pre-equilibrated with Buffer A. The column was washed with 15 mL of Buffer A and then with 15 mL of Buffer A + 20 mM Imidazole. The recombinant protein was eluted from the column with Buffer A + 500 mM Imidazole. The elution fractions containing the biosensor (optical observation) were pooled and buffer exchanged against Buffer A using a PD-10 column (G25-sepharose, GE Healthcare). In order to remove the His-tag, the recombinant protein was digested overnight (4 °C) using 4.5 mg/mL TEV protease in Buffer A containing 5 mM DTT and 2 mM EDTA. Finally, the digested sample was applied to a 5 mL HisTrap column pre-equilibrated with Buffer A, and the flow-through containing the un-tagged biosensor was collected. The purity of the recombinant biosensor was evaluated by SDS-PAGE, and the protein concentration estimated by measuring absorbance at 280 nm (ε^280 23.290 M^−1cm^−1) in a Nanodrop DS-11 FX device. Upon purification, the biosensor was obtained in an oxidized state, as assessed via spectrofluorimetry (see below).
For the fluorescence assays, the recombinant biosensor was used at a final concentration of 5 µM and compounds at 50 µM in Buffer A with DMSO (final concentration 1%). DTT was added at 10 mM for achieving full biosensor reduction. Fluorescence spectra ([…] and emission) were recorded using a Cary Eclipse equipment. […]

[3] = tested on: bloodstream form of T. b. brucei (strain 427); assay: Bioluminescence viability assay against bloodstream T. b. brucei expressing luciferase; details: for T. brucei SI vs. Hepatocytes: CC50 HepG2 hepatocytes/IC50 T. brucei; for T. brucei bloodstream SI vs. Macrophages: CC50 RAW macrophages/IC50 T. brucei; for activity at 10 µM: read-out: T. brucei bloodstream % Growth (10 µM), 10 µM, 24 h; for anti-T. brucei activity in preliminary screening, in words: 10 µM
[4] = MTT cytotoxicity assay, murine macrophages; type: cell-based; details: mouse, RAW 264.7 macrophage cells, RAW 264.7, 48 h
Description: (§1) Murine macrophages (cell line RAW 264.7, ATCC® TIB-71™) were grown in Dulbecco’s Modified Eagle Medium (DMEM) (Gibco, Invitrogen, Waltham, MA, USA) supplemented with 10% fetal bovine serum (FBS) (Eurobio) and 100 IU/mL penicillin + 100 µg/mL streptomycin (Gibco), at 37 °C, in an atmosphere containing 5% CO2. Human hepatocyte cell line HepG2 (ATCC® HB-8065™) was grown in MEM (Gibco, Invitrogen) supplemented with 10% FBS (Gibco, Invitrogen), 1% NEAA (Gibco, Invitrogen), and 1% L-glutamine (Gibco, Invitrogen). The medium was renewed twice a week. For both cell lines, the viability was determined using the MTT assay as described before for leishmanicidal activity assessment, with some variations. Here, 5 × 10^4 cells/well in a final volume of 100 µL were seeded into a 96-well plate, in triplicate for RAW macrophages and in duplicate for HepG2. Saponin (2.4 mg/mL) and untreated cells were used as positive control and negative control, respectively. Compounds were dissolved in DMSO to obtain different serial concentrations (1.56 to 800 µM) for RAW macrophages and 100–0.001 µM for HepG2. The final concentration of DMSO in each well was 0.5%. After exposure to compounds for 48 h and 72 h for RAW and HepG2 cells, respectively, 10 µL/well of MTT (5 mg/mL in PBS) was added, incubated at 37 °C for 2 h in darkness, and cells were pelleted via centrifugation at 4400 rpm for 10 min. The medium was removed, and 100 µL/well of DMSO was added to dissolve formazan. The absorbance at 570 and 630 nm was recorded following the same procedure as with parasites.

[5] = MTT cytotoxicity assay, HepG2; type: cell-based; details: human, HepG2 cells, HepG2, 72 h, read-out: CC50 HepG2 Hepatocytes
Description: as §1

[6] = tested on: hGrx1-roGFP2 redox biosensor in bloodstream T. brucei brucei; assay: In-cell redox assay with hGrx1-roGFP2 biosensor (flow cytometry); details: compound at its IC50, 1 h; for intracellular biosensor oxidation: relative to diamide (full oxidation) and DTT (reduction)
[7] = parameters: method as in PMID 34082794; details: ref [17]; cited from earlier work
[8] = Leishmania mexicana, read-out: L. mexicana Promastigote IC50, promastigotes, 48 h, MTT
[9] = Trypanosoma brucei, 24 h, read-out: T. brucei bloodstream IC50, 24 h, bioluminescence
[10] = read-out: T. brucei bloodstream IC50, 24 h, bioluminescence

Row | Compound | L. mexicana Promastigote SI vs. Hepatocytes [1] | L. mexicana Promastigote SI vs. Macrophage [1] | IC50 [1, 8] [µM] | IC50 ([1]; read-out: L. mexicana Promastigote IC50, promastigotes, MTT) [µM] | direct oxidation of the reduced recombinant biosensor [2] | prevention of biosensor oxidation (oxidized form) [2] | T. brucei SI vs. Hepatocytes [3] | T. brucei bloodstream SI vs. Macrophages [3] | IC50 [3, 9] [µM] | SI against T. brucei, range over both mammalian cell lines ([3]; murine macrophages and HepG2 hepatocytes) | CC50 at 48 h [4] [µM] | CC50 at 72 h [5] [µM] | intracellular biosensor oxidation [6] [%] | biosensor oxidation vs. DMSO [6] [%] | activity at 10 µM ([3]; Trypanosoma brucei, 24 h) [%] | IC50 [3, 10] [µM] | radical scavenging activity relative to ascorbic acid [7] | melting point | anti-T. brucei activity in preliminary screening, in words [3] | inhibition at 10 µM ([3]; Trypanosoma brucei, 24 h, read-out: T. brucei growth inhibition at 10 µM) [%]
1 | Cc1nn(-c2ccccc2)c(O)c1C(c1cc(C(F)(F)F)cc(C(F)(F)F)c1)c1c(C)nn(-c2ccccc2)c1O [Compound 2x, 4,4′-{[3,5-bis(trifluoromethyl)phenyl]methylene}bis(3-methyl-1-phenyl-1H-pyrazol-5-ol)] | 4.3 | 4.8 | ≤ 10 | 7 ± 2 | did not induce direct oxidation | 11–13% | 16 | 18 | 1.9 ± 0.9 | 11.6–18 | 34 ± 5 | 30 ± 2 | 95 | 63 |  |  |  |  |  | 
2 | Cc1nn(-c2ccccc2)c(O)c1C(c1ccc(O)c(O)c1)c1c(C)nn(-c2ccccc2)c1O [Compound 2n] | >14.3 |  | 7 ± 1 |  |  |  | >9.8 | 7 | 10 |  | 70 ± 7 | > 100 |  |  | ≤ 50 | 10.2 ± 1.75 | higher |  |  | 
3 | Cc1nn(-c2ccccc2)c(O)c1C(c1cccc(C(F)(F)F)c1)c1c(C)nn(-c2ccccc2)c1O [Compound 2w, 4,4′-[(3-trifluoromethylphenyl)methylene]bis(3-methyl-1-phenyl-1H-pyrazol-5-ol)] | 6.5 | 15.2 |  |  | did not induce direct oxidation | 11–13% | 2.9 | 6.8 | 9 |  | 61 ± 4 | 26 ± 3 | 63 | 30 | ≤ 50 | 8.9 ± 0.7 |  |  |  | 
4 | Cc1nn(-c2ccccc2)c(O)c1C(c1ccc(OC(F)(F)F)cc1)c1c(C)nn(-c2ccccc2)c1O [Compound 2s] | 8.7 | 14.3 |  |  |  |  |  |  |  |  | 49 ± 15 | 26 ± 15 |  |  | > 100 |  |  | 174.5 to 176 °C | inactive | 
5 | Cc1nn(-c2ccccc2)c(O)c1C(c1cc(O)ccc1[N+](=O)[O-])c1c(C)nn(-c2ccccc2)c1O [Compound 2h] | >4.8 | 5.1 | 21 ± 4 |  |  |  |  |  |  |  | 108 ± 22 | > 100 |  |  | 89 ± 3 |  |  | 205 to 207 °C (dec.) |  | 
6 | Cc1nn(-c2ccccc2)c(O)c1C(c1ccccc1)c1c(C)nn(-c2ccccc2)c1O [Compound 2b] | >3.1 | 6.4 | 32 ± 7 |  |  |  |  |  |  |  | 206 ± 28 | > 100 |  |  | 74 ± 7 |  |  | 159.5 to 161.1 °C |  | 
7 | Cc1nn(-c2ccccc2)c(O)c1C(c1cccc(O)c1)c1c(C)nn(-c2ccccc2)c1O [Compound 2l] | >5.6 | 6 | 18 ± 5 |  |  |  |  |  |  |  | 108 ± 33 | > 100 |  |  | > 100 |  |  | 165 to 167 °C | inactive | 0
8 | Cc1nn(-c2ccccc2)c(O)c1C(c1ccccc1[N+](=O)[O-])c1c(C)nn(-c2ccccc2)c1O [Compound 2c] | 1.5 | 3.1 | 17 ± 8 |  |  |  |  |  |  |  | 53 ± 6 | 26 ± 16 |  |  | 68 ± 5 |  |  | 210 to 211 °C |  | 
9 | Cc1nn(-c2ccccc2)c(O)c1C(c1ccc(F)cc1)c1c(C)nn(-c2ccccc2)c1O [Compound 2p] | 0.8 | 2.5 | 17 ± 1 |  |  |  |  |  |  |  | 43 ± 6 | 13 ± 2 |  |  | 79 ± 8 |  |  | 183.8 to 185.8 °C |  | 
